Test results reported in US12240854B2, “TRAF 6 inhibitors” (Helmholtz Zentrum München - Deutsches Forschungszentrum für …, priority 2018, dated 2025).
“Also recorded” adds a separate entry of the source.

Columns and labels:
ITCH = target: T1, ITCH (Homo sapiens, UniProt Q96J02); assay: In vitro ubiquitination assay, ITCH ubiquitin ligase kit; assay type: biochemical
T1 construct: purchased Boston Biochem
Protocol: For analysis of cIAP1, MDM2, TRIM63, RNF4, ITCH and E6AP mediated poly-ubiquitination, the respective ubiquitin ligase kit from Boston Biochem (K-102, K-260, K-200B, K-220, K-240 and K-270) was used. Here, reaction buffer, E1, E2 and E3 enzyme (and p53 substrate in case of MDM2) were mixed and pre-incubated with compound or DMSO for 5 minutes at room temperature before adding Mg^2+-ATP and mono-ubiquitin for reaction start. Ubiquitination was visualized by Western Blot analyses.

[1] = system: TCR target genes IL-2 and TNFα in Jurkat T-cells; assay: mRNA expression (qRT-PCR) in Jurkat T-cells; assay type: cell-based, human; conditions: PMA/Ionomycin
Protocol: (§1) For MEF cells, 1.2×10^5 cells per sample were seeded, treated with compound for 6 hours and stimulated with either IL-1β or TNFα for 60 minutes. Jurkat T-cells and primary mouse CD4^+ T-cells were seeded at 2×10^5 cells per sample, also treated with compound for 6 hours and stimulated with PMA/lonomycin for 3 hours. RNA was isolated according to the manufacturer's protocol of the Qiagen RNeasy Kit (MEF cells) or the STRATEC INVITRAP® SPIN UNIVERSAL RNA MINI KIT (Jurkat T-cells). The isolation of mRNA from […] white adipose tissue from DIO mice was performed using TRIzol® Reagent according to manufacturer's instruction. To clear the isolated RNA from genomic DNA, samples (up to 5 μg RNA) were treated with RQ1 RNase-Free DNaseI (Promega) as described in the technical manual. For the reverse transcription of RNA into cDNA, the DNaseI digested RNA samples were processed using the SuperScript III First Strand cDNA Synthesis System (Invitrogen/ThermoFisher Scientific) following the manufacturer's protocol. […] For quantification of cDNA in the samples, the LightCylcer480 (Roche) and the KAPA SYBR FAST qPCR Kit were used. For relative quantification, the ΔΔCp method first described by Pfaffl (Pfaffl, M. W., A new mathematical model for relative quantification in real-time RT-PCR. Nucleic Acids Res, 2001. 29(9): p. e45) was applied.

[2] = system: IL-2 and TNFα secretion of Jurkat T-cells; assay: ELISA cytokine secretion, Jurkat T-cells; assay type: cell-based, human
Protocol: (§2) For measurement of cytokine secretion, 2×10^5 Jurkat T-cells or primary CD4^+ T-cells or human PBMCs per sample were seeded, treated with compound for 6 hours and stimulated as indicated. 20 hours after stimulation, supernatants were harvested and analyzed with the IL-2, IL-1β and TNFα Ready-Set-Go! ELISA (2nd Generation) kits provided by Affymatrix eBioscience.

[3] = system: osteosarcoma cell line U2OS; assay: Cell growth of the osteosarcoma cell line U2OS with or without irradiation; assay type: cell-based
Protocol: For analysis of the cell growth of the osteosarcoma cell line U2OS, 5×10^3 cells were seeded in 96 well plates. 18 hours later, cells were treated with C25-140 (compound 3) or DMSO for 6 hours. Using a ^137caesium source (HWM-D2000), selected samples were irradiated with a dose of either 2 Gy or 4 Gy. Cell growth was measured every 24 hours for a period of 7 days by counting Hoechst33342 positive cells in an Operetta High-Content Imaging System (PerkinElmer) and the Harmony/Columbus analysis software (PerkinElmer).

[4] = system: primary murine CD4+ T-cells; assay: Primary mouse CD4+ T-cells, CD3/CD28 stimulation (qRT-PCR, ELISA); assay type: cell-based; conditions: primary naive CD4+ T-cells
Protocol: as §1, with “Jurkat T-cells and primary mouse CD4^+ T-cells were seeded at 2×10^5 cells per sample, also treated with compound for 6 hours and stimulated with PMA/lonomycin for 3 hours.” left out, “manual.” for “manual. For the reverse transcription of RNA into cDNA, the DNaseI digested RNA samples were processed using the SuperScript III First Strand cDNA Synthesis System (Invitrogen/ThermoFisher Scientific) following the manufacturer's protocol.”, “applied. […]” for “applied.”
as §2, with “ELISA (2nd Generation) kits provided by Affymatrix eBioscience.” left out

[5] = system: Diet-Induced-Obesity (DIO) mice; assay: Diet-Induced-Obesity (DIO) mouse study; assay type: in vivo; conditions: 7.4 mg/kg IP once daily
Protocol: Mice were fed a high-fat-diet until they reached a body weight of at least 40 g and developed […]. These mice were separated in control group and a group for C25-140 (compound 3) injection. Mice were treated every day with 14 μmol/kg (=7.4 mg/kg) C25-140 intraperitoneally for a period of 20 days. Thereby, C25-140 was dissolved in 2.9% DMSO, 1.5% Tween-80 and 1×PBS. Every day before injection, the body weight and food intake were measured. On day 20, mice were sacrificed two hours after compound injection and […] white adipose tissue from both body sites was removed, frozen in liquid nitrogen and stored at −80° C.

T1 sequence (Q96J02 whole entry): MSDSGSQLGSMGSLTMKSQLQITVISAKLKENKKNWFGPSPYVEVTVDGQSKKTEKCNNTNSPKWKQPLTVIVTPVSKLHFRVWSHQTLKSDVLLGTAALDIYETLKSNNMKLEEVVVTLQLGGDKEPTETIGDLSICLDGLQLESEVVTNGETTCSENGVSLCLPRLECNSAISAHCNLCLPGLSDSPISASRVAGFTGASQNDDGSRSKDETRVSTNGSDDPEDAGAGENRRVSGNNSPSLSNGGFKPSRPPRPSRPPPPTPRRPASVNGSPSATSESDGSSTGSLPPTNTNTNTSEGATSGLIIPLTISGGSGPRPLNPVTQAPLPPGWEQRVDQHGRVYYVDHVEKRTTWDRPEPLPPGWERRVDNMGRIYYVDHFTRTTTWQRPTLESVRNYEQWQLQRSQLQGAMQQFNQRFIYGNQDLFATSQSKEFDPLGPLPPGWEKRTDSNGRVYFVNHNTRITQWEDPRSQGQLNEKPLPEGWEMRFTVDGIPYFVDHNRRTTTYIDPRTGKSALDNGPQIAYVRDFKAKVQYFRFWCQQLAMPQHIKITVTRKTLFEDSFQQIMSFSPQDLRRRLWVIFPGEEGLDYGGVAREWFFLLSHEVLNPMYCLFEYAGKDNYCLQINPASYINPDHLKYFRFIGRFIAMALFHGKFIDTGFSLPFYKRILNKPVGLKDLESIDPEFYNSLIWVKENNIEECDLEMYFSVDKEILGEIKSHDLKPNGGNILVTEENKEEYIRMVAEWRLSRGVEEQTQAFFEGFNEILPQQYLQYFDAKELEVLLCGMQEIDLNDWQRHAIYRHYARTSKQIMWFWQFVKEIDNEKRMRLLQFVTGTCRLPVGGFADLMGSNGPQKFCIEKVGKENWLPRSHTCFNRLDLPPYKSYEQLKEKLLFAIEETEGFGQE

For Cc1nn(-c2ccc3nnc(C)n3n2)c(C)c1CCC(=O)N1CCC(Cc2ccccc2)CC1 [Example C25-140, 1-(4-Benzylpiperidin-1-yl)-3-(3,5-dimethyl-1-(3-methyl-[1,2,4]-triazolo-[4,3-b]-pyridazin-6-yl)-1H-pyrazol-4-yl)-propan-1-one], the ITCH auto-ubiquitination (ITCH) was “not influenced; also recorded: not affected”, the “mRNA levels of TCR target genes IL-2 and TNFα” value [1] was “reduced; also recorded: dose-dependently decreased” and the “cytokine secretion of IL-2 and TNFα” value [2] was “reduced; also recorded: dose-dependently decreased”. The osteosarcoma cell growth ([3]; 30 μM compound + 2Gy irradiation) was “synergistic effects; also recorded: boosted the effect to the region of 4Gy irradiation; also recorded: decreases cell growth to the same extent as the higher dose of irradiation (4Gy)”, the osteosarcoma cell growth ([3]; compound alone at 30 μM) was “reducing proliferation of U2OS cells to the same degree as 2Gy irradiation; also recorded: same inhibitory impact; also recorded: reduced” and the “IL-2 mRNA expression” value [4] was “impaired”. For the same molecule, the IL-2 protein secretion [4] was “counteracted; also recorded: impaired”, the food intake ([5]; 20 days) was “did not differ; also recorded: remains unaffected” and the body weight gain ([5]; 20 days, high-fat-diet) was “reduces gain of weight; also recorded: hardly increased body weight; also recorded: milder body weight gain”. The “mRNA levels of IL-1β and VCAM in epidermal white adipose tissue” value ([5]; day 20) was “reduces IL-1β expression; also recorded: significantly reduced; also recorded: decreased”.
